Entries after “also recorded” stand apart in the source; their conditions may differ.
Tests used:
[1] = system: vascularized cardiac organoids; assay: Integrated metabolic-electro-mechanical sensor chip: simultaneous contraction, field potential and interstitial oxygen; assay type: cell-based, human; details: for reversal of mitoxantrone-induced arrhythmic behavior: 100 μM metformin concurrent with 10 μM mitoxantrone
porcine cardiac tissue = system: porcine cardiac tissue
Description: The tissue was procured post-mortem from a 70 kg domestic female pig that underwent a laparoscopic liver operation (Ethical approval number MD-21-16533-3) and was euthanized using a lethal dose of potassium chloride. […] The lung was retracted, and the pericardium was incised.
The anterior wall of the left ventricle was incised from base to apex and several slices measuring 2-3 mm in length and 1-2 mm thick were obtained using a #10 scalpel blade. Cardiac tissues were further cut into 500±200 μm thick slices and washed thoroughly with 37° C. pre-warmed ex-vivo medium composed of M199 medium, supplemented with 1×insulin-transferrin-selenium (ITS), 10% fetal bovine serum (FBS), and 5 ng/mL vascular endothelial growth factor (VEGF), and 10 mM of 2-[4-(2-hydroxyethyl)piperazin-1-yl]ethanesulfonic acid (HEPES).
The cardiac explants were then embedded with oxygen sensors, placed on the MEAs chip, and transferred to a 37° C. temperature-controlled incubation chamber that contains M199 medium supplemented with 1× ITS, 10% FBS, 5 ng/mL VEGF, and 10 mM HEPES to support long term function, as previously described. The explant was continuously point-stimulated at 2 Hz cycle length. Contraction, field potential, and oxygen were assessed using the integrated metabolic-electro-mechanical sensor chip. […]

[2] = system: hiPSC-derived cardiomyocytes; assay: Live imaging of mitochondrial calcium (Rhod-2AM) and visual contraction analysis in 2D culture; assay type: cell-based, human; details: n=4
[3] = system: hiPSC-derived vascularized cardiac organoids; assay: Beating of vascularized cardiac organoids under pharmaceutical stimulation; assay type: cell-based, human
Description: hiPS-derived cardiomyocytes and microvascular cardiac endothelial cells (VEC Technologies, USA) were counted and mixed in a 2:1 ratio in growth factor reduced Matrigel (BD Biosciences, San Jose, CA) at a cell density of 6.8×10^4 cells per μl. A volume of 1.1 μl of the gel-imbedded mixture (7.48×10^4 cells) was injected into each microwell and left to form spontaneously in RPMI-1640 supplemented with B27 minus insulin and 5 ng/ml vascular endothelial growth factor (VEGF-A, Peprotech) until their spontaneous beating was regained after 6-10 days.
(§1) Fast phase-contrast imaging (17 frames per second) was performed at suitable magnification using an LSM-700 Zeiss microscope. The time-lapse micrograph was analyzed using a custom MATLAB® code. Briefly, multiple regions of interest (ROIs) were selected on the cardiac tissue borders, producing a distinct area with changes representative of the cardiac contraction. Dynamic changes in the ROI intensity were measured over time and converted into beating rates using Fast Fourier Transformation (FFT). Contractility was calculated based on the frequency amplitude magnitude.

[4] = system: vascularized cardiac organoids; assay: Integrated metabolic-electro-mechanical sensor chip: simultaneous contraction, field potential and interstitial oxygen; assay type: cell-based, human; details: 10 μM KB-R7943
Description: The MEA design and printed connections enabled access to 45 different electrodes inside the platform intermittently via a compatible sensor circuit (FIGS. 9A-9B). Spontaneous cardiac field potentials (FPs) were recorded from cardiac organoids using an integrated signal conditioning circuit (AD8232®), with a 2-pole adjustable high-pass filter, 3-pole adjustable low-pass filter, adjustable gain, and medical instrumentation amplifiers to extract, amplify, and filter the extracellular field potential of the organoids remotely within the confined well. […] Spontaneous cardiac field potentials were measured at 100 Hz sampling rate in each microwell. Field potential rhythm frequency was calculated in real-time using a custom-made MATLAB® software imposing Fourier Transformation (FFT) on the evolving kinetic data (FIGS. 9C-9D).
Real-time oxygen measurement was performed based on previously described elements. Briefly, phosphorescent ruthenium microprobes (CPOx-50-RuP) show a decrease in phosphorescence decay time as a function of oxygen concentration, allowing to measure the oxygen content. Controlled sinusoidal modulated 532-nm LED signal excites the embedded oxygen sensors and emits a sinusoidal amplitude-modulated light at 605 nm that is shifted in phase due to oxygen quenching. A phase shift is measured between the emission hardware-filtered first detector (PMT), and a second excitation detector (cPMT). […] Measurements were carried out at a 10 Hz sampling rate. Contraction rate and oxygen rhythm frequency were calculated in real-time using a custom-made MATLAB® software imposing Fourier Transformation (FFT) on the evolving kinetic data. Using custom MATLAB code, we calculated the cardiac organoid contraction rates directly from our oxygen reader based on the emission intensity measured in peak-to-peak voltage from the oxygen bead and its displacement using the second PMT system. Cardiac displacement was measured by the embedded oxygen beads inside the cardiac organoids during a contraction. When the beads move at different distances from the focal point, changes in peak-to-peak voltage occurred leading to the detection of the contraction behavior.
For simultaneous real-time oxygen, contraction rate, and field potential measurements, cardiac organoids were cultured in RPMI supplemented with B27 minus insulin, 5 ng/ml VEGF and 0.1% DMSO (control) or 10 μM KB-R7943 mesylate. Real-time oxygen, contraction rate, and field potential were measured after 0, 15, and 25 minutes of exposure to DMSO (control) or 10 μM KB-R7943 mesylate.

[5] = system: hiPSC-derived cardiomyocytes; assay: Live imaging of mitochondrial calcium (Rhod-2AM) and visual contraction analysis in 2D culture; assay type: cell-based, human; details: for decrease of magnitude of [Ca2+]m oscillations / reduction of contraction magnitude: n=4
Description: as §1
For mitochondrial calcium live imaging, different hiPSC-derived cardiomyocytes were cultured in RPMI supplemented with B27 minus insulin, and 0.1% DMSO (control) or […] KB-R7943 mesylate (Tocris Bioscieice, USA), Mean mitochondrial calcium was measured using live imaging of Rhod-2AM dye after 0, 30, and 90 seconds of exposure to DMSO (control) or 10 μM MCU inhibitor KB-R7943 mesylate
Mitochondrial calcium uptake within human iPSC-derived cardiomyocytes was measured using Rhod-2AM dye according to the manufacturer's instructions (Abcam, USA). Cells were loaded with […] Rhod-2AM in RPMI supplemented with B27-I for 30 min at 37° C., washed with PBS, and incubated with RPMI supplemented with […] KB-R7943 or 0.1% DMSO, and B27-I. Measurements were taken continuously using an incubated LSM-700 Zeiss microscope at 5% CO2 and 37° C. Rhod-2AM measurement was conducted by excitation at 552 nm at a 10 Hz sampling rate. Mitochondrial calcium uptake was calculated by the change of the mean emission intensity at 581 nm. The time-lapse micrograph was analyzed using multiple regions of interest (ROIs) and was selected based on Mitotracker staining, producing a distinct area with changes representative to mitochondrial networks. Changes in fluorescent intensity were used to determine oscillation rate and amplitude.

[6] = system: vascularized cardiac organoids; assay: Metabolic flux balance analysis and ATP production in cardiac organoids; assay type: cell-based, human; details: 10 μM KB-R7943, within 20 minutes of exposure
Description: Amperometric 4-analytes sensors (B.LV5) were purchased from Innovative Sensor Technology (IST, Switzerland). Measurements were carried out and calibrated to sensitivity decrease by an on-chip potentiostat (IST, Switzerland). Oxygen, glucose, lactate, and glutamine fluxes were measured by calculating the change in metabolite concentration over time. Glutamine measurement allowed us to calculate lipid metabolism fluxes. Oxidative phosphorylation flux was calculated by dividing the oxygen uptake rate by six. The inventors estimated 32 ATP molecules generated by the complete oxidation of glucose. Glycolysis flux was calculated by dividing the lactate production rate by two, with the maximal rate defined by glucose uptake rate minus the oxidative phosphorylation flux. ATP production in glycolysis was estimated to be two molecules per molecule of glucose. Glutaminolysis was calculated directly by glutamine uptake. ATP production in glutaminolysis was estimated to be three molecules per molecule of lactate generated.

With `CN(C)C(=N)N=C(N)N` [metformin] as the compound, how does the “reversal of mitoxantrone-induced arrhythmic behavior” value [1] read?
The value was “reverts the effect, displaying regular heart contraction and field potential; also recorded: reversed this effect”.

What about the “reversal of mitoxantrone-induced arrhythmic behavior” value ([1]; listed as Metformin) of the same compound?
Its value is “rescues the arrhythmic cardiac behavior”.

And the beating rate ([1]; metformin (100 μM) combined with mitoxantrone (10 μM), from 82 BPM)?
The beating rate was 61 BPM.

What about the beating frequency (porcine cardiac tissue; 100 μM metformin concurrent with 10 μM mitoxantrone) of the same compound?
The beating frequency was 1.4 Hz.

And the “increase in mean mitochondrial calcium content” value ([2]; 100 μM metformin added to 10 μM mitoxantrone treatment)?
The value was 3.4 fold.

`CNC[C@H](O)c1ccc(O)c(O)c1` [epinephrine] was tested. Which “effect on contractility and contraction rate” value [1] did it give?
The value was “increases the contractility and contraction rate”.

And the “effect on mean interstitial oxygen concentration” value [1]?
Its value is “decreasing the mean interstitial oxygen concentration”.

And the increase of contraction [1]?
The increase of contraction was 33%.

What about the organoid contraction frequency [1] of the same compound?
The organoid contraction frequency was 1.95 Hz.

What about the “contraction (beating) rate” value [3] of the same compound?
Its value is 88±7 bpm.

What does the source list for `CCCCc1oc2ccccc2c1C(=O)c1cc(I)c(OCCN(CC)CC)c(I)c1` [amiodarone]?
decrease of contraction / contraction amplitude ([3]; 10 μM amiodarone, n=6): 28%; contraction rate ([3]; 10 μM amiodarone, spontaneous beating 66±5 bpm, n=6): 52±4 bpm

For `N=C(N)SCCc1ccc(OCc2ccc([N+](=O)[O-])cc2)cc1` [KB-R7943], which “effect on coupling of mitochondrial and electro-mechanical activity” value [4] is on record?
The value was “caused uncoupling between mitochondrial and electro-mechanical activity, resulting in arrhythmic cardiac behavior”.

And the “effect on magnitude of organoid contraction and depolarization” value [4]?
The value was “comparable and parallel decrease”.

What about the “effect on oxygen uptake of the cardiac organoid” value [4] of the same compound?
Its value is “progressive decrease in the oxygen uptake”.

What about the “effect on magnitude of oxygen oscillations” value ([4]; n=9) of the same compound?
Its value is “significantly and progressively decreased”.

And the “increase of contraction frequency, oxygen oscillation rate and field potential oscillation frequency (all three rates)” value ([1]; 10 μM KB-R7943, within 35 minutes of exposure, n=9)?
The value was 2.5 fold.

And the “effect on [Ca2+]m concentration” value ([5]; 10 μM KB-R7943)?
The value was “no significant difference”.

What about the “decrease of magnitude of [Ca2+]m oscillations” value ([5]; 10 μM KB-R7943, 30 seconds) of the same compound?
The value was 60%.

What about the “reduction of contraction magnitude” value ([5]; 10 μM KB-R7943, 30 seconds) of the same compound?
Its value is 45%.

And the “decrease of magnitude of [Ca2+]m oscillations” value ([5]; 10 μM KB-R7943, 90 seconds)?
Its value is 78%.

What about the “reduction of contraction magnitude” value ([5]; 10 μM KB-R7943, 90 seconds) of the same compound?
Its value is 70%.

And the “effect on cardiomyocyte contractility and [Ca2+]m oscillation amplitude” value ([5]; 10 μM KB-R7943, acute)?
The value was “dramatically decreases cardiomyocyte contractility, and [Ca^2+]m oscillation amplitude; also recorded: decreases the magnitude of cardiomyocyte contraction”.

And the “effect on cardiomyocyte contraction frequency (rate)” value ([5]; 10 μM KB-R7943, short term exposure)?
The value was “without affecting contraction rate; also recorded: did not significantly affect”.

What about the “effect on ATP generation (production)” value [6] of the same compound?
The value was “decrease in ATP production; also recorded: decrease in ATP generation”.

Which results are given for `O=C1c2c(O)ccc(O)c2C(=O)c2c(NCCNCCO)ccc(NCCNCCO)c21` [mitoxantrone]?
effect on mechanical contraction, electrical depolarization and oxygen concentration ([1]; mitoxantrone exposure (10 μM)): markedly decreased; contraction rate ([1]; mitoxantrone exposure (10 μM), from 53 BPM): 79 BPM; beating frequency (cardiac rhythm) (porcine cardiac tissue; female, pig, 10 μM): 2 Hz; decrease in mitochondrial calcium ([2]; 10 μM mitoxantrone alone): 79%

Reference: US20240263147A1, “CARDIAC ORGANOID AND ANTI-ELECTRO-MITOCHONDRIAL DESYNCHRONIZATION THERAPY” (YISSUM RESEARCH DEVELOPMENT COMPANY OF THE HEBREW …, priority 2021, published 2024)
